Results from article PMC9091252 (Nature Communications, 2022).
“And” between values parts separate entries of the source, which are not always exact repeats. Equal entries are not always repeated.

Columns and labels:
S1 domain of SARS-CoV-2 = S1 domain of SARS-CoV-2 (Severe acute respiratory syndrome coronavirus 2, UniProt P0DTC2); experiment: FD-based AFM binding probability of S1-functionalized tip on 9-AcSA, SA or streptavidin coated surfaces
S1 subunit = S1 subunit (Severe acute respiratory syndrome coronavirus 2, UniProt P0DTC2); experiment: Dynamic force spectroscopy and kinetic on-rate analysis of the S1 – 9-AcSA bond; type: binding, SARS-CoV-2
SARS-CoV-2 = experiment: AFM inhibition assay: binding probability between SARS-CoV-2 virions and 9-AcSA coated surfaces before and after incubation with oligomers; details: for relative BP, Mean: mean of 3 tips, 0 uM = 1; for relative BP, single tip: normalized to 0 uM = 1

Compound | binding probability in competition assay with free 9-AcSA (S1 domain of SARS-CoV-2; S1 tip on 9-AcSA surface, free 1 mM 9-AcSA) | difference in binding probability between acetylated and non-acetylated SA (S1 domain of SARS-CoV-2; S1 tip, 9-AcSA versus SA coated surface) | koff (S1 subunit; Bell-Evans fit, single S1 – 9-AcSA bond) [s⁻¹] | KD (S1 subunit; ratio between koff and kon) | Kd (S1 subunit; ratio between koff and kon) [µM] | IC50 (SARS-CoV-2) [µM] | relative BP, Mean (SARS-CoV-2; 1 uM) | relative BP, single tip (SARS-CoV-2; 1 uM) | relative BP, Mean (SARS-CoV-2; 10 uM) | relative BP, single tip (SARS-CoV-2; 10 uM) | relative BP, Mean (SARS-CoV-2; 100 uM) | relative BP, single tip (SARS-CoV-2; 100 uM) | reduction in the binding probability (SARS-CoV-2; over the explored range 1, 10, 100 µM) | relative BP, single tip (SARS-CoV-2; 1 uM, listed as Pillar[5]arene NonAc) | relative BP, single tip (SARS-CoV-2; 10 uM, listed as Pillar[5]arene NonAc) | relative BP, single tip (SARS-CoV-2; 100 uM, listed as Pillar[5]arene NonAc)
9-O-acetylated sialic acid [9-AcSA] | significantly lower BP | ~ 3 fold | 0.24 ± 0.2 | low micromolar range | 5.7 ± 5 | > 100 | 0.8501 | 0.7609 and 0.6994 and 1.09 | 0.807 | 0.7029 and 0.638 and 1.08 | 0.638 | 0.587 and 0.4969 and 0.83 | 20-30% |  |  | 
CC(=O)N[C@H]1[C@H]([C@H](O)[C@H](O)CO)O[C@@](OCc2cn(CCOc3cc4c(OCCn5cc(CO[C@]6(C(=O)O)C[C@H](O)[C@@H](NC(C)=O)[C@H]([C@H](O)[C@H](O)CO)O6)nn5)cc3Cc3cc(OCCn5cc(CO[C@]6(C(=O)O)C[C@H](O)[C@@H](NC(C)=O)[C@H]([C@H](O)[C@H](O)CO)O6)nn5)c(cc3OCCn3cc(CO[C@]5(C(=O)O)C[C@H](O)[C@@H](NC(C)=O)[C@H]([C@H](O)[C@H](O)CO)O5)nn3)Cc3cc(OCCn5cc(CO[C@]6(C(=O)O)C[C@H](O)[C@@H](NC(C)=O)[C@H]([C@H](O)[C@H](O)CO)O6)nn5)c(cc3OCCn3cc(CO[C@]5(C(=O)O)C[C@H](O)[C@@H](NC(C)=O)[C@H]([C@H](O)[C@H](O)CO)O5)nn3)Cc3cc(OCCn5cc(CO[C@]6(C(=O)O)C[C@H](O)[C@@H](NC(C)=O)[C@H]([C@H](O)[C@H](O)CO)O6)nn5)c(cc3OCCn3cc(CO[C@]5(C(=O)O)C[C@H](O)[C@@H](NC(C)=O)[C@H]([C@H](O)[C@H](O)CO)O5)nn3)Cc3cc(OCCn5cc(CO[C@]6(C(=O)O)C[C@H](O)[C@@H](NC(C)=O)[C@H]([C@H](O)[C@H](O)CO)O6)nn5)c(cc3OCCn3cc(CO[C@]5(C(=O)O)C[C@H](O)[C@@H](NC(C)=O)[C@H]([C@H](O)[C@H](O)CO)O5)nn3)C4)nn2)(C(=O)O)C[C@@H]1O [compound 4] |  |  |  |  |  |  | 0.7825 |  | 0.836 |  | 0.9261 |  |  | 0.6071 and 0.8687 and 0.8718 | 0.7738 and 0.9394 and 0.7949 | 0.9286 and 0.9394 and 0.9103
